The values that follow come from ChEMBL document CHEMBL4428125, “8-Substituted 1,3-dimethyltetrahydropyrazino[2,1-f]purinediones: Water-soluble adenosine receptor antagonists and monoamine oxidase B inhibitors” (Bioorg Med Chem, 2016).

For orientation: Ki means the dissociation constant of the complex between target and ligand, obtained from inhibition or displacement. Low readings indicate a stronger hold on the target, high ones a looser hold on the target. For orientation: inhibition means the change of the read-out against control, counted positive when it falls. One may read the IC50 as the concentration needed to halve the response being measured.

Assay [1] addresses T1, Adenosine receptor A1 (Homo sapiens, UniProt P30542).
T1 sequence (P30542 whole entry): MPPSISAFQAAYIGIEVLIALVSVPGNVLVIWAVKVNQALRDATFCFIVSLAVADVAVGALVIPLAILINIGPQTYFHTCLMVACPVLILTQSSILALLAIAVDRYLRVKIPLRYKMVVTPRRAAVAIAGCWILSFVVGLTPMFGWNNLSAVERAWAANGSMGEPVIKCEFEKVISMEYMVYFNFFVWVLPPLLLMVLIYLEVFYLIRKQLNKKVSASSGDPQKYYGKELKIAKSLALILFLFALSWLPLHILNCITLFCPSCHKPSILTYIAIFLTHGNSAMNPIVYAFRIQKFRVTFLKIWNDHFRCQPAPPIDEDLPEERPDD
Kind of assay: Displacement of [3H]CCPA from human A1 receptor expressed in CHO cell membrane by liquid scintillation counting method. It is filed as cell membranes. Background: Displacement assays read how much labelled ligand stays bound in the presence of the test substance.

Assay [2] deals with Adenosine receptor A2a (Rattus norvegicus, UniProt P30543). The experiment in a line: Displacement of [3H]MSX from A2A receptor in rat brain striatum membranes measured after 30 mins by liquid scintillation counting method. In kind it is cell membranes.
Assay [3] deals with T2, Amine oxidase [flavin-containing] A (Homo sapiens, UniProt P21397).
T2 sequence (P21397 whole entry): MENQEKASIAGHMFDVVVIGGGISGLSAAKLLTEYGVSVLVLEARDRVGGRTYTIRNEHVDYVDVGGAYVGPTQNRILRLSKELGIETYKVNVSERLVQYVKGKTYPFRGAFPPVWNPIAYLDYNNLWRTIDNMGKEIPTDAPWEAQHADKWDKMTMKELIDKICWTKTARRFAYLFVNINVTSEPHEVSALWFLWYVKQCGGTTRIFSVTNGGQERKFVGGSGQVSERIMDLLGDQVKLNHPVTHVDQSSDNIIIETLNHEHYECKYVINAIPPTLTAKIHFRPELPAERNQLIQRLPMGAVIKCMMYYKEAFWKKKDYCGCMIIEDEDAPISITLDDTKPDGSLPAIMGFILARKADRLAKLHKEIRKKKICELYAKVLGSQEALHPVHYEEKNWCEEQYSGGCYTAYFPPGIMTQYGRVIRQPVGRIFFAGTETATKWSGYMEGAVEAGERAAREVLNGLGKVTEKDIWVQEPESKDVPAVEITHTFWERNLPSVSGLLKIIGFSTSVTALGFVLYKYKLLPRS
Kind of assay: Inhibition of recombinant human MAO-A expressed in baculovirus infected BTI insect cells at 10 uM preincubated for 30 mins followed by addition of p-tyramine as substrate measured over 45 mins by Amplex Red MAO assay relative to control. The conditions noted are these: 0.75 h.

Assay [4] addresses T3, Amine oxidase [flavin-containing] B (Homo sapiens, UniProt P27338).
T3 sequence (P27338 whole entry): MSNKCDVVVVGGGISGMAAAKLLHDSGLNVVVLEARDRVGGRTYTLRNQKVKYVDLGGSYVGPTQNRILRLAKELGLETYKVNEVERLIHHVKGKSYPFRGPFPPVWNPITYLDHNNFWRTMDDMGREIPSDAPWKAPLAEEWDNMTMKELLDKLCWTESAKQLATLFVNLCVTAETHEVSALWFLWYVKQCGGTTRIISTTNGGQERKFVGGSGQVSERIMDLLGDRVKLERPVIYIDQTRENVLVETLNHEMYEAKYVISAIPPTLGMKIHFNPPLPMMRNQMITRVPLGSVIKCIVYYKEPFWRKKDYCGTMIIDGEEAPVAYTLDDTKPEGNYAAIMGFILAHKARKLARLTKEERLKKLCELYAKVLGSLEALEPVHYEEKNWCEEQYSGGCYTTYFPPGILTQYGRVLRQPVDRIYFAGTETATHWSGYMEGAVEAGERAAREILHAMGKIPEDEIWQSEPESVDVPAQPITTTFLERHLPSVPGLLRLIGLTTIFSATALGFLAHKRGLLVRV
The experiment in a line: Inhibition of recombinant human MAO-B expressed in baculovirus infected BTI insect cells preincubated for 30 mins followed by addition of p-tyramine as substrate measured over 45 mins by Amplex Red MAO assay.

Assay [5] addresses T4, Amine oxidase [flavin-containing] B (Rattus norvegicus, UniProt P19643).
T4 sequence (P19643 whole entry): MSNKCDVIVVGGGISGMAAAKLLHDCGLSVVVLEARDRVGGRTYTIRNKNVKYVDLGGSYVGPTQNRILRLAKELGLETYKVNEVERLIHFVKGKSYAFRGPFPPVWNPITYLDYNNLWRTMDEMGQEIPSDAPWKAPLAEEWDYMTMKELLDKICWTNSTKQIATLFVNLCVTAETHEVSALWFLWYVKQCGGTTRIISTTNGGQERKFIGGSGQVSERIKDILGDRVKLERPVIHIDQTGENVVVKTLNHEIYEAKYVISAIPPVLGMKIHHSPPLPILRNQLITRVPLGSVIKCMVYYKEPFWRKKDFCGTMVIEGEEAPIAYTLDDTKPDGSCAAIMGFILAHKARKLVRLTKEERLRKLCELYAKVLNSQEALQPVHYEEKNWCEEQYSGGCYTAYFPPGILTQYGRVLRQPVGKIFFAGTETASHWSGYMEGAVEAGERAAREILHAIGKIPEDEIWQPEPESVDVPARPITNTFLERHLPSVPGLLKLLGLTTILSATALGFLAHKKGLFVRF
The experiment in a line: Inhibition of recombinant rat MAO-B preincubated for 30 mins followed by addition of p-tyramine as substrate measured over 45 mins by Amplex Red MAO assay.

Assay [6] has as its target T5, Adenosine receptor A2b (Homo sapiens, UniProt P29275).
T5 sequence (P29275 whole entry): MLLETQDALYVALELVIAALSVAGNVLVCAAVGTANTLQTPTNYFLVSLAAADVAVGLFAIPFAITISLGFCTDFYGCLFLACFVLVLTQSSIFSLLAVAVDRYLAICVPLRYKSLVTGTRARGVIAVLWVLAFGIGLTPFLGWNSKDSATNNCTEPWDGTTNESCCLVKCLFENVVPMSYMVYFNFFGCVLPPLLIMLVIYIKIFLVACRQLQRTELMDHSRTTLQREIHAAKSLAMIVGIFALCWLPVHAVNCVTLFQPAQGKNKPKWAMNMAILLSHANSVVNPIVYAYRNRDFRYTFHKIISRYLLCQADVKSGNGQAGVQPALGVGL
Kind of assay: Displacement of [3H]PSB-603 from human A2B receptor expressed in CHO cell membrane. In kind it is cell membranes.

Assay [7] deals with T6, Adenosine receptor A3 (Homo sapiens, UniProt P0DMS8).
T6 sequence (P0DMS8 whole entry): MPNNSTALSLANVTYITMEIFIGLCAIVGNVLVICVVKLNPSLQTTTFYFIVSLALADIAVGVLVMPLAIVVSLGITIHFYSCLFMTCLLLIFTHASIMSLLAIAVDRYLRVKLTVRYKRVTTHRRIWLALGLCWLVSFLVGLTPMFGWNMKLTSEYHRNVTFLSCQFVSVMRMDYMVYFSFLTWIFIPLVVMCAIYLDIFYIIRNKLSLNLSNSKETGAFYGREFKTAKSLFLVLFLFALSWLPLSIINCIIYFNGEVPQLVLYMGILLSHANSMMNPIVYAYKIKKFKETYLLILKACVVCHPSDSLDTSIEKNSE
The experiment in a line: Displacement of [3H]PSB-11 from human A3 receptor expressed in CHO cell membrane by liquid scintillation counting method relative to control. In kind it is cell membranes.

Sequence of Adenosine receptor A2a (P30543 whole entry): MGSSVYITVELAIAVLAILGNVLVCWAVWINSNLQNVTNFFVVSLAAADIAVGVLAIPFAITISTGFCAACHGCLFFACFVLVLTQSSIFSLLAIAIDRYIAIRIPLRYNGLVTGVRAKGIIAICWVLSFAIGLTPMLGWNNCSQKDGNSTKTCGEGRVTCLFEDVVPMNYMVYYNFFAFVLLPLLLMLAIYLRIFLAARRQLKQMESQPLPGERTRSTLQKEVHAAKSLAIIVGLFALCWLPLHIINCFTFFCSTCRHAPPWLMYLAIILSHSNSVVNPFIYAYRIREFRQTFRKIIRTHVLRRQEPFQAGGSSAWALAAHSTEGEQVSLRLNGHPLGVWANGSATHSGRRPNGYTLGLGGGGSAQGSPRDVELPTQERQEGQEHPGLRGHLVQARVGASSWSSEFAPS

Take `Cn1c(=O)c2c(nc3n2CCN([C@@H]2CCCc4ccccc42)C3)n(C)c1=O`: the Ki was 393 nM in assay [1], 510 nM in assay [2], more than 300 nM in assay [6] and 14 µM in assay [7]. The inhibition at 10 µM in assay [3] amounted to 14%. Besides, the IC50 in assay [4] worked out at 210 nM; in assay [5], 100 nM.

`Cn1c(=O)c2c(nc3n2CCN(c2cccc(Cl)c2)C3)n(C)c1=O`: the Ki in assay [1] was not below 10000 nM; in assay [2], 557 nM; in assay [6], more than 1000 nM; in assay [7] it was more than 10 µM. Moreover, the inhibition at 10 µM in assay [3] was 4%. In addition, the IC50 came out at 385 nM in assay [4] and 251 nM in assay [5].
